Results from patent US20080312192A1, “Diaryl Urea Derivatives in the Treatment of Protein Kinase Dependent Diseases” (priority 2003, published 2008).
Structures can show the parent of a compound that is named as a salt.

Target: T1, Flt-3 (Homo sapiens, UniProt P36888)
T1 construct: amino acids 563-993 of the cytoplasmic kinase domain of human Flt-3; made in house; host or cells: Sf9 insect cells (baculovirus, vector pFbacG01)
T1 sequence (P36888 563-993): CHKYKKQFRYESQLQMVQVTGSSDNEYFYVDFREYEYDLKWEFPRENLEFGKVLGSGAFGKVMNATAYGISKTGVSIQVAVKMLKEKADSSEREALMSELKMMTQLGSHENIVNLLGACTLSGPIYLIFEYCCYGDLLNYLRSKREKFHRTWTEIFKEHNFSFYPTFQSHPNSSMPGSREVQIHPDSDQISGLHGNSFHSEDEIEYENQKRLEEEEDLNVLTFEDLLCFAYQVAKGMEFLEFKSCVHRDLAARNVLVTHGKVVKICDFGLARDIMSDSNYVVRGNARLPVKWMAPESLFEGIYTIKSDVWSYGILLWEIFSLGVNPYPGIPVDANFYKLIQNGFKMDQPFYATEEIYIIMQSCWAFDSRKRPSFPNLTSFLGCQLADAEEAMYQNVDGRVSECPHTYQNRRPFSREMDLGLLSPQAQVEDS
Test: Flt-3 kinase inhibition (GST-Flt-3, 33P incorporation into poly(Glu,Tyr))
Type: biochemical
Experimental: Flt-3 kinase inhibition is determined as follows: The baculovirus donor vector pFbacG01 (GIBCO) is used to generate a recombinant baculovirus expressing the amino acid region amino acids 563-993 of the cytoplasmic kinase domain of human Flt-3. The coding sequence for the cytoplasmic domain of Flt-3 is amplified by PCR from human c-DNA libraries (Clontech). The amplified DNA fragments and the pFbacG01 vector are made compatible for ligation by digestion with BamHI and HindIII. Ligation of these DNA fragments results in the baculovirus donor plasmid pFbacG01-Flt-3. The production of the viruses, the expression of proteins in Sf9 cells and the purification of the GST-fused proteins are performed as follows:
Production of virus: The baculovirus donor plasmid (pFbacG01-Flt-3) containing the Flt-3 kinase domain is transfected into the DH10Bac cell line (GIBCO) and the transfected cells are plated on selective agar plates. Colonies without insertion of the fusion sequence into the viral genome (carried by the bacteria) are blue. Single white colonies are picked and viral DNA (bacmid) is isolated from the bacteria by standard plasmid purification procedures. Sf9 or Sf21 cells (American Type Culture Collection) are then transfected in flasks with the viral DNA using Cellfectin reagent.
Protein expression in Sf9 cells: Virus containing media is collected from the transfected cell culture and used for infection to increase its titre. Virus containing media obtained after two rounds of infection is used for large-scale protein expression. For large-scale protein expression 100 cm^2 round tissue culture plates are seeded with 5×10^7 cells/plate and infected with 1 mL of virus-containing media (approx. 5 MOIs). After 3 days the cells are scraped off the plate and centrifuged at 500 rpm for 5 min. Cell pellets from 10-20, 100 cm^2 plates are resuspended in 50 mL of ice-cold lysis buffer (25 mM Tris-HCl, pH 7.5, 2 mM EDTA-1% NP-40. 1 mM DTT, 1 mM PMSF). The cells are stirred on ice for 15 min and then centrifuged at 5000 rpms for 20 min.
Purification of GST-tagged protein: The centrifuged cell lysate is loaded onto a 2 mL glutathione-sepharose column (Pharmacia) and washed three times with 10 mL of 25 mM Tris-HCl, pH 7.5, 2 mM EDTA, 1 mM DTT, 200 mM NaCl. The GST-tagged protein is then eluted by 10 applications (1 mL each) of 25 mM Tris-HCl, pH 7.5, 10 mM reduced-glutathione, 100 mM NaCl, 1 mM DTT, 10% Glycerol and stored at −70° C.
Measurement of enzyme activity: Tyrosine protein kinase assays with purified GST-Flt-3 protein are carried out in a final volume of 30 μL containing 200-1800 ng of enzyme protein (depending on the specific activity), 20 mM Tris-HCl, pH 7.6, 3 mM MnCl2, 3 mM MgCl2, 1 mM DTT, 10 μM Na3VO4, 3 μg/mL poly(Glu, Tyr) 4:1, 1% DMSO, 8.0 μM ATP and 0.1 μCi [γ^33 P] ATP. The activity is assayed in the presence or absence of inhibitors, by measuring the incorporation of ^33P from [γ^33P] ATP into the poly(Glu,Tyr) substrate. The assay (30 μL) is carried out in 96-well plates at ambient temperature for 20 min and terminated by the addition of 20 μL of 125 mM EDTA. Subsequently, 40 μL of the reaction mixture is transferred onto Immobilon-PVDF membrane (Millipore, Bedford, Mass., USA) previously soaked for 5 min with methanol, rinsed with water, then soaked for 5 min with 0.5% H3PO4 and mounted on vacuum manifold with disconnected vacuum source. After spotting all samples, vacuum is connected and each well rinsed with 200 μL 0.5% H3PO4. Membranes are removed and washed 4× on a shaker with 1.0% H3PO4, once with ethanol. Membranes are counted after drying at ambient temperature, mounting in Packard TopCount 96-well frame, and addition of 10 μL/well of Microscint™ (Packard). IC50 values are calculated by linear regression analysis of the percentage inhibition of each compound in duplicate, at four concentrations (usually 0.01, 0.1, 1 and 10 μM). One unit of protein kinase activity is defined as 1 nmole of ^33P transferred from [γ3P] […]

| Compound | IC50 [µM] |
| --- | --- |
| O=C(Nc1ccc(Oc2cc(Cl)ncn2)cc1)Nc1cc(CN2CCC2)cc(C(F)(F)F)c1 [Example 1, N-[4-(6-Chloro-pyrimidin-4-yloxy)-phenyl]-N′-[3-(azetidin-1-ylmethyl)-5-trifluoromethyl-phenyl]-urea] | 0.905 |
| CNc1cc(Oc2ccc(NC(=O)Nc3cc(CN4CCC4)cc(C(F)(F)F)c3)cc2)ncn1 [Example 2, N-[4-(6-Methylamino-pyrimidin-4-yloxy)-phenyl]-N′-(3-azetidin-1-ylmethyl-5-trifluoromethyl-phenyl)-urea] | 1.2 |
| CC(C)N1CCN(Cc2cc(NC(=O)Nc3ccc(Oc4cc(N)ncn4)cc3)cc(C(F)(F)F)c2)CC1 [Example 8, N-[4-(6-Amino-pyrimidin-4-yloxy)-phenyl]-N′-[3-(4-isopropylpiperazin-1-ylmethyl)-5-trifluoromethyl-phenyl]-urea] | 0.51 |
| CN1CCN(Cc2ccc(NC(=O)Nc3ccc(Oc4cc(Cl)ncn4)cc3)cc2C(F)(F)F)CC1 [Example 14, N-[4-(6-Chloro-pyrimidin-4-yloxy)-phenyl]-N′-[4-(4-methylpiperazin-1-ylmethyl)-3-trifluoromethyl-phenyl]-urea] | 0.36 |
| CC(C)N1CCN(Cc2ccc(NC(=O)Nc3ccc(Oc4cc(Cl)ncn4)cc3)cc2C(F)(F)F)CC1 [Example 15, N-[4-(6-Chloro-pyrimidin-4-yloxy)-phenyl]-N′-[4-(4-isopropylpiperazin-1-ylmethyl)-3-trifluoromethyl-phenyl]-urea] | 0.6 |
| CNc1cc(Oc2ccc(NC(=O)Nc3ccc(CN4CCN(C(C)C)CC4)c(C(F)(F)F)c3)cc2)ncn1 [Example 16, N-[4-(6-Methylamino-pyrimidin-4-yloxy)-phenyl]-N′-[4-(4-isopropylpiperazin-1-ylmethyl)-3-trifluoromethyl-phenyl]-urea trifluoroacetate] | 0.36 |
| CNc1cc(Oc2ccc(NC(=O)Nc3ccc(CN4CC[N+]([O-])(C(C)C)CC4)c(C(F)(F)F)c3)cc2)ncn1 [Example 17, N-[4-(6-Methylamino-pyrimidin-4-yloxy)-phenyl]-N′-[4-(4-isopropyl-4-oxy-piperazin-1-ylmethyl)-3-trifluoromethyl-phenyl]-urea trifluoroacetate] | 0.94 |
| CN(Cc1ccc(NC(=O)Nc2ccc(Oc3cc(Cl)ncn3)cc2)cc1C(F)(F)F)C(C)(C)C [Example 21, N-[4-(6-Chloro-pyrimidin-4-yloxy)-phenyl]-N′-[4-(methyl-^tertbutyl-amino-methyl)-3-trifluoromethyl-phenyl]-urea] | 1.8 |
| CNc1cc(Oc2ccc(NC(=O)Nc3ccc(CN(C)C(C)(C)C)c(C(F)(F)F)c3)cc2)ncn1 [Example 34a.1] | 1.1 |
| CN(Cc1ccc(NC(=O)Nc2ccc(Oc3cc(N)ncn3)cc2)cc1C(F)(F)F)C(C)(C)C [Example 34a.3] | 0.83 |
| CNc1cc(Oc2ccc(NC(=O)Nc3ccc(CN4CCC4)c(C(F)(F)F)c3)cc2)ncn1 [Example 34b.1] | 0.36 |
| Nc1cc(Oc2ccc(NC(=O)Nc3ccc(CN4CCC4)c(C(F)(F)F)c3)cc2)ncn1 [Example 34b.3] | 0.37 |
| CNc1cc(Oc2ccc(NC(=O)Nc3ccc(CN4CCN(C(C)(C)C)CC4)c(C(F)(F)F)c3)cc2)ncn1 [Example 34c.1] | 0.54 |
| CC(C)(C)N1CCN(Cc2ccc(NC(=O)Nc3ccc(Oc4cc(N)ncn4)cc3)cc2C(F)(F)F)CC1 [Example 34c.3] | 0.35 |
| CNc1cc(Oc2ccc(NC(=O)Nc3ccc(Cn4cnc(C)c4C)c(C(F)(F)F)c3)cc2)ncn1 [Example 34d.1] | 0.67 |
| Cc1ncn(Cc2ccc(NC(=O)Nc3ccc(Oc4cc(N)ncn4)cc3)cc2C(F)(F)F)c1C [Example 34d.3] | 0.29 |
| CNc1cc(Oc2ccc(NC(=O)Nc3ccc(Cn4ccnc4C)c(C(F)(F)F)c3)cc2)ncn1 [Example 34e.1] | 0.16 |
| Cc1nccn1Cc1ccc(NC(=O)Nc2ccc(Oc3cc(N)ncn3)cc2)cc1C(F)(F)F [Example 34e.3] | 0.079 |
| CCN1CCN(Cc2ccc(NC(=O)Nc3ccc(Oc4cc(NC)ncn4)cc3)cc2C)CC1 [Example 34g.1] | 0.3 |
